According to PubChem BioAssay AID179 (DTP/NCI, 2004):
“And” between values parts separate entries of the source, which are not always exact repeats. Equal values may be shown once. The source made the active and inactive calls.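 The calls were made as follows: active = compounds giving half or more protection of infected cells from virus-caused growth loss, again on retest; inactive = the rest.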 Where a SMILES comes first, the peptide text is derived from it. The star is where a group is joined. Boc = CC(C)(C)OC(=O)*; OcHex = C1CCC(O*)CC1

Test system: CEM cells HIV-1 protection, formazan growth assay
Test: NCI AIDS Antiviral Assay
Settings: for IC50: measured here: growth of uninfected CEM cells
Procedure, shortened: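 Human CEM cells, uninfected and HIV-1-infected, received five drug concentrations, and growth was read by soluble formazan assay. Compounds giving at least 50% protection were retested; reproducible 100% protection defined confirmed active.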

SMILES | EC50 [µM] | IC50 | outcome
COc1c(Cl)cc(C(=CCCCCN[C@@H]2CC[C@@]3(C)[C@@H](CC[C@@H]4[C@@H]3CC[C@]3(C)[C@@H](C(C)CCCC(C)C)CC[C@@H]43)C2)c2cc(Cl)c(OC)c(C(=O)O)c2)cc1C(=O)O (stereo not given in full) | > 200 | > 200 µM | 
NN1CCOC1=O | > 200 | > 200 µM | 
CCc1c(C#N)c(=O)[nH]c(=O)n1CCN1CCN(C(=O)NCCCCCCNC(=O)N2CCN(CCn3c(CC)c(C#N)c(=O)[nH]c3=O)CC2)CC1 |  |  | inactive
Clc1ccc(C2SCc3nc4ccccc4n32)cc1Cl (stereo not given) |  |  | inactive
O=C1CCC(NC(=O)c2ccccc2)C(=O)N1 (stereo not given) | > 200 | > 200 µM | 
COC(=O)C(C)(NC(=O)C(CC(=O)OC(C)(C)C)NC(=O)OC(C)(C)C)c1ccccc1 (stereo not given) | > 200 | > 100 µM | 
CC(=O)NNc1nc(C)c(C(/C=C/c2ccc(Cl)cc2)=N\N=C(N)N)s1 | > 18.2 | > 18.2 µM | 
CNS(=O)(=O)NNS(=O)(=O)c1ccccc1 | > 933 | > 200 µM | 
CCCCCCC(C)CCCCCCCCCCC(=O)OCC(COP(=O)([O-])OCC[N+](C)(C)C)OC(=O)CCCCCCCCCCC(C)CCCCCC (stereo not given) |  |  | inactive
c1ccc(C2=NN3CN(N2)c2ccccc2OCCCOc2ccccc23)cc1 | > 200 | 105 µM | 
CCC(C)C(=O)O[C@H]1C(=O)O[C@@H]2C[C@H]3C(C)=CC(=O)[C@@H](O)[C@]3(C)[C@H]3[C@@H](O)[C@H](O)[C@@]4(C)OC[C@]32[C@@H]14 (stereo not given in full) | > 5.25 | 0.00891 µM | 
CC(C)(C)C1(O)Cc2ccccc2C(=O)O1 (stereo not given) | > 309 | > 309 µM | 
Cc1ccc(-c2c(C#N)c(O)n(NS(=O)(=O)c3ccccc3)c(=O)c2C#N)cc1 | > 200 | > 200 µM | 
O=S(=O)(O)CCCCO | > 200 | > 200 µM | 
Cc1ccc(S(=O)(=O)C2=Cc3ccccc3C2(O)c2ccccc2)cc1 (stereo not given) | > 200 | 21.4 µM | 
COc1ccc2c(c1OC)C1=NCCc3c(OC)c(OC)c(OC)c-2c31 |  |  | inactive
COc1cc(-c2[nH]ncc2CCCC(=O)Nc2ccccc2[N+](=O)[O-])ccc1O |  |  | inactive
CC1OC1C(=O)C1(O)C(C)C(O)C23OC2(C(O)c2c(O)cccc2C3=O)C1O (stereo not given) | > 229 | 0.229 µM | 
COc1ccc2cc(C(C)C(O)c3cc(F)c(F)c(F)c3F)ccc2c1 (stereo not given) | 126 | > 200 µM | 
CCOC(=O)C(=O)C1CCCCC1=O (stereo not given) | > 200 | 43.7 µM | 
N#CCC(=O)N/N=C1/C(=O)N(c2cc(Cl)ccc2Cl)C(=O)C(=O)C1c1nc2ccccc2s1 (stereo not given) |  |  | inactive

SMILES | EC50 [µM] | IC50 | outcome
c1cc[c]([Sn]([O]c2cccc3cccnc23)([c]2ccccc2)[c]2ccccc2)cc1 |  |  | inactive
O=C(Nc1ccc(Cl)cc1)NS(=O)(=O)c1c(-c2ccccc2)oc2ccccc2c1=O |  |  | inactive
CCOC(=O)C1(NC(=O)OC(C)(C)C)CCc2[nH]oc(=O)c2C1 (stereo not given) | > 200 | > 200 µM | 
CC1(C)CCCOc2ccc(C(=O)O)cc21 | > 200 | > 200 µM | 
CC1=C(C(=O)CC(=O)C(=O)Nc2ccc(Cl)cc2C)Sc2ccccc2N1 | > 117 | > 117 µM | 
CCCCCCCCCCCCCCCC[NH][Ge]([NH]CCCCCCCCCCCCCCCC)([NH]CCCCCCCCCCCCCCCC)[NH]CCCCCCCCCCCCCCCC | > 7.41 | 4.79 µM | 
O=C(NP1(=O)NCc2ccccc2CN1)OC1CCCCC1 | > 288 | > 288 µM | 
CCOC(=O)Cn1c(=O)c2nc(SC)sc2n(-c2ccccc2)c1=S | > 200 | > 200 µM | 
CC1=NN(C(=O)Cc2ccccc2)C(=O)/C1=C\c1ccc(O)cc1 | > 16.2 | > 16.2 µM | 
COc1cc2nc3n(c2cc1OC)C(O)c1c(Cl)nc(SC)nc1S3 (stereo not given) | > 200 | 7.76 µM | 
Cc1ccc(NC(=O)CCC(=O)C(C#N)c2ccc(Cl)cc2)cc1C (stereo not given) | > 708 | > 708 µM | 
O=C(Nc1ccc(C2=NCCN2)cc1)c1ccc(C(=O)Nc2ccc(C3=NCCN3)cc2)c(Cl)c1 | > 200 | 49 µM | 
N#Cc1nc(C2CCC(=O)O2)oc1N (stereo not given) | > 200 | > 200 µM | 
NC(=O)c1ncn2c1CNC(=O)C2 | > 200 | > 200 µM | 
COc1ccc(C2CC(=O)c3c(O)cc(O)cc3O2)cc1O (stereo not given) | > 832 | 74.1 µM | 
CCOC(=O)c1nc2ccccc2nc1NCc1ccc(Cl)cc1Cl | > 100 | 72.4 µM | 
COc1ccc(N2C(=O)CC(=O)N(C(=O)CCCCCCCCC(=O)N3C(=O)CC(=O)N(c4ccc(OC)cc4)C3=S)C2=S)cc1 | > 200 | 102 µM | 
Cc1ccc(NC2=CC(=O)C(NO)c3ccccc32)cc1 (stereo not given) | > 200 | 3.89 µM | 
O=C1C=C(Nc2ccccc2C(=O)CC(=O)C(=O)Nc2ccc(Cl)cc2)c2ccccc2C1=O | > 39.8 | 2.19 µM | 
NS(=O)(=O)C1CCCCC1C(=O)NNC(=O)C(=O)Nc1nc(=S)[nH][nH]1 (stereo not given) | > 646 | > 646 µM | 
Cc1ccc(OS(=O)(=O)c2ccccc2[N+](=O)[O-])cc1 |  |  | active

SMILES | EC50 [µM] | IC50 | outcome
Cc1oc2c(c1C)S(=O)(=O)C(C#N)=C(N(C)C)N2 | > 200 | > 200 µM | 
CCC1(c2ccccc2)Sc2ccccc2-n2cccc2C1=O (stereo not given) | 18.2 | 155 µM | 
CC(C)(O)S(=O)(=O)O | > 200 | > 200 µM | 
C/C=C/C(C1=C(O)c2ccccc2C(=O)C1=O)C1=C(O)c2ccccc2C(=O)C1=O | > 200 | 83.2 µM | 
Cn1c(NC(=O)C(=O)NC23CC4CC(CC(C4)C2)C3)nc2ccccc21 |  |  | inactive
CN=c1ssc(/N=C(\SC)N(C)C)[n+]1C |  |  | inactive
O=C(O)c1ccc(S(=O)(=O)c2cccc([N+](=O)[O-])c2)cc1 | > 200 | > 200 µM | 
CN(C(=O)C12C3C4(C(=O)O)C1(C(=O)N(C)C(C)(C)C)C1C2(C(=O)O)C3(C(=O)N(C)C(C)(C)C)C14C(=O)N(C)C(C)(C)C)C(C)(C)C (stereo not given) | > 151 | > 151 µM | 
Cc1c(NC(=S)Nc2ccc(Cl)cc2)c(=O)n(-c2ccccc2)n1C | > 200 | > 200 µM | 
Oc1c(NCn2nc(CCCCCCCCc3nn(CNc4ccc5ccccc5c4O)c(=S)o3)oc2=S)ccc2ccccc12 | > 200 | 35.5 µM | 
CC(C)CC(NC(=O)OC(C)(C)C)C(=O)NC(CCC(=O)OC1CCCCC1)C(N)=O (stereo not drawn) (Boc-Leu-Glu(OcHex)-NH2; configuration not given here) | > 200 | 126 µM | 
c1cc2c(c(CC3CO3)c1CC1CO1)OCCOCCOCCOCCO2 (stereo not given) | > 661 | 1.38 µM | 
O=C1c2ccccc2NC2(C(=O)Nc3ccccc32)N1N1CCOCC1 (stereo not given) | > 200 | > 200 µM | 
COc1cc(CC(C)N[C@@H](C)c2ccccc2)cc(OC)c1 (stereo not given in full) | > 200 | 18.6 µM and 64.6 µM | 
O=C(Nc1ccccc1)c1cc2cc(N=Nc3ccc(Br)cc3)ccc2oc1=O |  |  | inactive
CC(NC(=O)C(C)C(=O)Nc1ccc(C(F)(F)F)cc1)C(N)=O (stereo not given) | > 200 | > 200 µM | 
CC1(C(=O)O)CCCC2(C)[C@@H]3CCC4CC3(CC[C@H]12)C[C@@]4(C)O (stereo not given in full) | > 200 | > 200 µM | 
O=C(Nc1ccn(C2CC(O)C(CO)O2)c(=O)n1)c1ccccc1 (stereo not given) | > 200 | > 200 µM | 
COc1ccc(OCc2ccc3nc(-c4ccccc4)c(Cl)nc3c2)cc1 | > 200 | 20.4 µM | 
